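Assay format: 96-well plates, 48-hour exposure. The concentration for 50% growth inhibition is given as GI50.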 Activity calls are given as the source filed them. Cut-off read from the data, not from the text of the source: active = GI50 up to about 1.1 µM and inactive = higher.

Test systems include OVCAR-8; SK-OV-3; Hs-578T; PC-3; T47D; NCI-H460; MCF7; SF-268; Malme-3M; HCT-116; HOP-92; TK-10; MOLT-4; RXF 393; SK-MEL-2; OVCAR-5; A498; UO-31; HCT-15; CCRF-CEM.
Common to all, as to test: NCI anticancer screen, dose series, 48 h

For the compound `Oc1ccc(Cc2cc(Cl)cc(Cl)c2O)cc1Cl`, the GI50 with OVCAR-8 is 19 µM (inactive); in the test with SK-OV-3 it was 27.1 µM (inactive); with Hs-578T, 18 µM (inactive); in the test with PC-3, 17.7 µM (inactive); in the test with T47D it was 18.4 µM (inactive); in the test with NCI-H460 it was 17.8 µM (inactive). Besides, the GI50 with MCF7 is 18.1 µM (inactive); in the test with SF-268, 16.6 µM (inactive); in the test with Malme-3M, 16.8 µM (inactive); with HCT-116, 18.7 µM (inactive); in the test with HOP-92, 18.2 µM (inactive); in the test with TK-10, 16.3 µM (inactive). The GI50 in the test with MOLT-4 was 20 µM (inactive); in the test with RXF 393, 13.4 µM (inactive); in the test on SK-MEL-2, 15.5 µM (inactive); with OVCAR-5, 18.4 µM (inactive); in the test with A498, 19.5 µM (inactive); with UO-31, 15.7 µM (inactive). In the test on HCT-15, the GI50 is 16.9 µM.

As for `Cn1c(=O)c2c(nc(N)n2C2OC(CO)C(O)C2O)n(C)c1=O` (stereo not given), the GI50 in the test on OVCAR-8, with SK-OV-3, in the test on Hs-578T, with PC-3, with T47D and in the test on NCI-H460 was > 100 µM (inactive) in each case. The GI50 was > 100 µM (inactive) in the test on MCF7; > 100 µM (inactive) in the test on SF-268; > 100 µM (inactive) with Malme-3M; > 100 µM (inactive) in the test with HCT-116; 61.9 µM (inactive) with HOP-92; > 100 µM (inactive) with CCRF-CEM. Besides, the GI50 with TK-10, with MOLT-4, in the test with RXF 393, in the test with OVCAR-5, in the test with A498 and in the test on UO-31 was > 100 µM (inactive) in each case. The compound also had a GI50 in the test on HCT-15 of more than 100 µM.

Turning to `O=C1CCc2cc([N+](=O)[O-])ccc2O1`, the GI50 with OVCAR-8, in the test with Hs-578T, with PC-3, with T47D, in the test on NCI-H460 and in the test with MCF7 was > 100 µM (inactive) in each case. Besides, the GI50 in the test with SF-268, with Malme-3M, in the test on HCT-116, in the test on HOP-92, in the test with CCRF-CEM and with TK-10 was > 100 µM (inactive) in each case. For the same compound, the GI50 in the test with MOLT-4 was > 100 µM (inactive); with RXF 393, > 100 µM (inactive); in the test with SK-MEL-2, > 100 µM (inactive); with OVCAR-5 it was > 100 µM (inactive); with A498, > 100 µM (inactive); in the test with HCT-15, more than 100 µM.

`COc1ccc(-n2c(N)c(C#N)c(C#N)c2-c2cccc([N+](=O)[O-])c2)cc1`: the GI50 is 88.9 µM (inactive) with OVCAR-8; 43.7 µM (inactive) in the test with SK-OV-3; 15.3 µM (inactive) with Hs-578T; 33.5 µM (inactive) in the test with PC-3; 35.2 µM (inactive) with T47D; 61.5 µM (inactive) in the test on MCF7. Also, the GI50 in the test with SF-268 is 51.9 µM (inactive); in the test with Malme-3M it was > 100 µM (inactive); in the test with HOP-92, 15.3 µM (inactive); in the test with CCRF-CEM, 5.31 µM (inactive); in the test with TK-10, > 100 µM (inactive); in the test with MOLT-4 it was 2.46 µM (inactive). For the same compound, the GI50 in the test with RXF 393 is 2.55 µM (inactive); with SK-MEL-2, 1.77 µM (inactive); with OVCAR-5 it was > 100 µM (inactive); in the test with A498, > 100 µM (inactive); in the test on UO-31 it was 15 µM (inactive); with HCT-15 it was more than 100 µM.

With `Cc1sc2nc3n(c(=O)c2c1C)N=C(c1ccccc1)CS3`, the GI50 in the test with OVCAR-8 was > 100 µM (inactive); with SK-OV-3 it was > 100 µM (inactive); in the test on Hs-578T it was 37.5 µM (inactive); with PC-3, > 100 µM (inactive); in the test with T47D, > 100 µM (inactive); with NCI-H460, > 100 µM (inactive). Further, the GI50 in the test with MCF7, with SF-268, in the test on Malme-3M, with HCT-116, with HOP-92 and in the test on CCRF-CEM was > 100 µM (inactive) in each case. Moreover, the GI50 with TK-10, in the test with MOLT-4, in the test with RXF 393, in the test with OVCAR-5, in the test on A498 and with UO-31 was > 100 µM (inactive) each time. In the test on HCT-15, the GI50 was more than 100 µM.

As for `COc1cc(/C=N/NC(=O)c2ccc(NC(C)=O)cc2OC)ccc1O`, the GI50 in the test with OVCAR-8 is > 100 µM (inactive); in the test on SK-OV-3, > 100 µM (inactive); with Hs-578T, 32.4 µM (inactive); in the test on PC-3, 43.5 µM (inactive); in the test on T47D, 84.5 µM (inactive); with MCF7, > 100 µM (inactive). Also, the GI50 in the test on SF-268 is 34.2 µM (inactive); with Malme-3M it was > 100 µM (inactive); in the test with HCT-116, 61.8 µM (inactive); with HOP-92, 22.6 µM (inactive); with CCRF-CEM it was > 100 µM (inactive); in the test with MOLT-4, > 100 µM (inactive). Besides, the GI50 in the test with RXF 393 is 39.3 µM (inactive); in the test with SK-MEL-2, 26.9 µM (inactive); in the test with OVCAR-5 it was > 100 µM (inactive); in the test with A498 it was 86.3 µM (inactive); in the test on UO-31 it was > 100 µM (inactive); in the test on HCT-15, 76.6 µM.

Turning to `O=[N+]([O-])c1ccc(C2ON=C(c3ccccc3)N2C23CC4CC(CC(C4)C2)C3)cc1` (stereo not given), the GI50 in the test on OVCAR-8 is > 10 µM (inactive); in the test on SK-OV-3, > 10 µM (inactive); in the test with Hs-578T, 6.75 µM (inactive); in the test on PC-3 it was > 10 µM (inactive); in the test with T47D, > 10 µM (inactive); in the test on NCI-H460, > 10 µM (inactive). The GI50 in the test with MCF7, in the test on SF-268, in the test on Malme-3M, with HCT-116, with HOP-92 and with CCRF-CEM was > 10 µM (inactive) in each case. The GI50 with TK-10, in the test on MOLT-4, with RXF 393, in the test on SK-MEL-2, in the test with OVCAR-5 and in the test with A498 was > 10 µM (inactive) in each case. In the test with HCT-15, this compound yielded a GI50 of more than 10 µM.

For the compound `C#C[C@]1(O)CC[C@H]2[C@@H]3CCc4cc(OC(=O)c5cccc6cc7ccccc7nc56)ccc4[C@H]3CC[C@@]21C`, the GI50 was 40.8 µM (inactive) in the test with OVCAR-8; 62.1 µM (inactive) in the test with SK-OV-3; 25.6 µM (inactive) in the test with Hs-578T; 35.9 µM (inactive) in the test on PC-3; 13.9 µM (inactive) in the test with T47D; 23 µM (inactive) with NCI-H460. Also, the GI50 in the test on MCF7 was 25.2 µM (inactive); with SF-268, 67.5 µM (inactive); in the test with Malme-3M it was 6.44 µM (inactive); with HCT-116, 24.3 µM (inactive); in the test on HOP-92 it was 66.5 µM (inactive); in the test on CCRF-CEM it was 12.8 µM (inactive). Besides, the GI50 in the test on MOLT-4 is 6.98 µM (inactive); in the test on RXF 393 it was 44.4 µM (inactive); in the test on SK-MEL-2 it was 29.2 µM (inactive); in the test on OVCAR-5, 43.8 µM (inactive); in the test on A498, > 100 µM (inactive); in the test with HCT-15, 26.1 µM.

Take `O=S1(=O)c2ccccc2C(=NO)c2ccccc21`: the GI50 is > 100 µM (inactive) in the test with OVCAR-8; > 100 µM (inactive) in the test with SK-OV-3; 63.8 µM (inactive) with Hs-578T; 43.4 µM (inactive) in the test with PC-3; 80 µM (inactive) in the test on T47D; > 100 µM (inactive) with NCI-H460. Also, the GI50 was > 100 µM (inactive) in the test with MCF7; > 100 µM (inactive) with SF-268; > 100 µM (inactive) in the test on HCT-116; > 100 µM (inactive) in the test with HOP-92; 47.1 µM (inactive) in the test on CCRF-CEM; > 100 µM (inactive) in the test on TK-10. Also, the GI50 is 30.3 µM (inactive) in the test on MOLT-4; 24.8 µM (inactive) in the test with RXF 393; > 100 µM (inactive) in the test with SK-MEL-2; > 100 µM (inactive) in the test on OVCAR-5; > 100 µM (inactive) in the test on A498; 28.2 µM (inactive) in the test on UO-31. Further, the GI50 in the test with HCT-15 was more than 100 µM.

As to `CC(C)=CCN1c2ccccc2NC(=O)CC1C` (stereo not given), the GI50 in the test with OVCAR-8 was > 100 µM (inactive); with SK-OV-3, > 100 µM (inactive); in the test on Hs-578T, > 100 µM (inactive); with PC-3, > 100 µM (inactive); in the test on T47D it was 84.7 µM (inactive); in the test with NCI-H460, > 100 µM (inactive). Also, the GI50 was > 100 µM (inactive) in the test on MCF7; > 100 µM (inactive) in the test with SF-268; > 100 µM (inactive) with Malme-3M; 38.7 µM (inactive) in the test with HOP-92; > 100 µM (inactive) in the test with CCRF-CEM; 55.8 µM (inactive) in the test with TK-10. Also, the GI50 in the test on MOLT-4 is > 100 µM (inactive); with RXF 393, > 100 µM (inactive); with SK-MEL-2 it was > 100 µM (inactive); in the test with OVCAR-5, > 100 µM (inactive); with A498, 83.8 µM (inactive); in the test with UO-31, 83.4 µM (inactive). The same compound came in with a GI50 in the test on HCT-15 of more than 100 µM.

For `COC(=O)[C@]1(CCC(C)=O)C(=O)C=CN([C@H](C)c2ccccc2)[C@@H]1Cc1ccc(OC)c(OCc2ccccc2)c1I`, the GI50 is 22 µM (inactive) with OVCAR-8; 35.4 µM (inactive) with SK-OV-3; 24 µM (inactive) in the test on Hs-578T; 16.6 µM (inactive) in the test with PC-3; 13.5 µM (inactive) in the test with T47D; 15.9 µM (inactive) in the test on NCI-H460. In addition, the GI50 is 19.2 µM (inactive) in the test on MCF7; 15.4 µM (inactive) in the test on SF-268; 14 µM (inactive) with HCT-116; 6.08 µM (inactive) in the test with HOP-92; 25.4 µM (inactive) with CCRF-CEM; 21.5 µM (inactive) in the test on TK-10. Also, the GI50 is 12.4 µM (inactive) in the test with MOLT-4; 11.4 µM (inactive) with RXF 393; 16.6 µM (inactive) in the test with SK-MEL-2; 22.7 µM (inactive) with OVCAR-5; 22.5 µM (inactive) with A498; 15.2 µM (inactive) in the test on UO-31. This compound had a GI50 in the test with HCT-15 of 18.9 µM.

(Values after ChEMBL document CHEMBL1201862, “PubChem BioAssay data set” (2004).)
